Two compounds from US6673798B2, “PDGF receptor kinase inhibitory compounds, their preparation, purification and pharmaceutical compositions including same” (Yissum Research Development Company of the Hebrew …, priority 1999, dated 2004) can be followed below.

Like-named read-outs stand apart in the source and are kept apart here. Bounds are passed on as bounds.

One experiment has as its target T1, KDR (Homo sapiens, UniProt P35968).
T1 construct: expressed in transfected cells; host or cells: porcine aortic endothelial cells (PAEC), stably transfected
The experiment is described as follows: KDR receptor phosphorylation in intact PAEC cells. The following applies: intact PAEC cells expressing KDR, VEGF stimulated; read-out: IC50 (50% inhibition of phosphorylation) KDR. The experiment is classed as cell-based. As to the method: (§1) Effect of tyrphostins on PDGF-induced PDGFR autophosphorylation in intact PAEC cells: PAEC cells, transfected with either PDGFR or KDR, cultivated in Ham's F-12 medium supplemented with 10% fetal calf serum (FCS), were synchronized for 20 hours in a medium containing 0.01% BSA. […] After stimulation, the cells were solubilized in Nonidet P-40 (1%) containing lysis buffer.
The analysis of KDR receptor phosphorylation was performed as follows. Cell lysates were subjected to immunoprecipitation using the KDR specific antiserum. The precipitates were subjected to polyacrylamide (7.5%) gel electrophoresis in presence of sodium dodecyl sulfate (SDS-PAGE) and were thereafter blotted onto a nitrocellulose membrane (Hybond C-EXTRA, Amersham). Phosphorylated proteins were detected by immunoblotting using the horseradish-peroxidase conjugated phosphotyrosine antibody RC20H (Transduction Laboratories), followed by chemoluminescence-based detection (ECL, Amersham) and autoradiography.

Experiment [1] deals with human coronary artery SMC (HCASMC). Description: HCASMC migration (Boyden chamber). The experiment is classed as cell-based. The protocol:
Human coronary artery endothelial cells (HCAEC) and human coronary artery smooth muscle cells (HCASMC) were purchased from Clonetics (Heidelberg), and grown in EBM medium (supplemented with EGM-MV SINGLE QUOTS®) or in SmBM medium (supplemented with SmGM-2 SINGLE QUOTS®), respectively (Clonetics).
Assessment of cell migration (Chemotaxis assay): The chemotactic response of HCASMC, PAEC/KDR and PAEC/PDGFR cells was assessed using the modified Boyden chamber (Neuro Probe, Inc.) and collagen-coated polycarbonate filters (Nucleopore) with pore diameters of 8 μm as previously described. Briefly, PAEC/KDR and PAEC/PDGFR cells were cultivated and assayed in Ham's F12 medium containing 10% FCS. HCASMC were cultivated in SmGM-2 (clonetics) and assayed in SmBM-WM containing 10% FCS and 0.1% BSA. To the medium in the lower part of the Boyden chamber, either VEGF or PDGF-BB (10 ng/ml, respectively) were added. AG2033 was added to both upper and lower chamber parts. Suspended cells were given 4 hours for migration, after a preincubation period of 15 minute in AG2033. The number of cells that migrated without PDGF-BB or VEGF stimulation was referred to as 100% migration (chemokinesis). The assay was performed in triplicate, and five medium-power fields were counted per well using a light microscope (Jenalab).
Further evaluation of HCASMC cells migration toward PDGD-BB, in the presence of purified “transoid” isomers, was conducted in a Boyden chamber (see experimental section, above).

A further experiment addresses T2, PDGFβR (Mus musculus, UniProt P05622).
T2 construct: A preparation of purified PDGFR from Swiss 3T3 cell membranes was used; endogenous in cells
Description: PDGFR autophosphorylation, purified receptor from Swiss 3T3 cell membranes (cell free). The experiment is classed as biochemical. As to conditions: for % of Control (percent autokinase activity): isolated PDGFβR; for IC50: isolated PDGFR from Swiss 3T3 cell membranes, read-out: IC50 (50% inhibition of phosphorylation). The protocol: In vitro effect of tyrphostins on purified PDGFR autophosphroylation: Membranes were prepared from confluent cultures of canine kidney epithelial cells (TRMP) or Swiss 3T3 cells as described. Further purification of the PDGF-βR was performed as described in [23]. Briefly, 2 μl kinase preparation were incubated for 20 minutes on ice in the presence of 2 μg/ml PDGF-BB in 20 μl of 50 mM Hepes (pH 7.4). Kinase reaction was executed for 10 minute on ice with 5 mM MnCl2, 1 mM vanadate, 10 μM [γ-^32P]ATP (2.5 μCi per reaction). The reaction was terminated by addition of 10 μl of a solution containing 6% SDS, 30% β-mercaptoethanol, 40% glycerol, and 0.5 mg/ml bromophenol blue. The samples were heated for 5 minutes at 95° C. and subjected to polyacrylamide gel electrophoresis in the presence of 0.4% SDS, using 7.5% polyacrylamide gels. The gels were stained, dried and subjected to autoradiographic analysis. For quantification of radioactivity in electrophoresis gels, a Phospho-Imager (Molecular Dynamics, Fuji, or Bio-Rad) was used according to the instructions of the manufacturer. To obtain autoradiograms, objects were exposed to X-ray film (Fuji RX or Kodak X-OMAT) with intensifying screens at −70° C.
Inhibition of PDGF-induced tyrosine phosphorylation by tyrphostins in vitro: A preparation of purified PDGFR from Swiss 3T3 cell membranes was used to assess and compare the inhibitory effects of tyrphostin compounds on tyrosine kinase activity. Various concentrations of the purified “transoid” isomers AG2033 and AG2043, were evaluated. Table 8 below presents IC50 values (50% inhibition of phosphorylation, μM) of AG2033 and AG2043. Data presents the potencies of the compounds with respect to PDGFR, as was determined using the isolated receptor (see experimental methods section above).
Kinase reactions, using an isolated PDGFβR preparation, in the presence of 0.03-3 μM tyrphostin, were conducted, utilizing [γ-^32P]ATP as probe. Densitometric evaluation, relative to control lacking the tyrphostin inhibitor (100%), results in the percent autokinase activity, presented in Table 8 and in the dose-response curves for the purified transoid isomers AG2033 (FIG. 6) and AG2043 (FIG. 7). Further comparison between the resulting autoradiogrms for each pair of geometrical isomers AG2033 and AG2034 (upper panel); AG2043 and AG2044 (lower panel), for their inhibitory activity towards PDGF-induced PDGFβR autophosphorylation (concentration range: 0.1-10 μM) in intact cells is presented in FIG. 8. […] Similar potency relation exists between the AG2043 and AG2044 isomers.

In another experiment the target is PDGF β-receptor (Homo sapiens, UniProt P09619). The experiment is described as follows: PDGF-induced PDGFR autophosphorylation in intact PAEC cells. It is filed as cell-based. Further details: expressed in transfected cells; host or cells: porcine aortic endothelial cells (PAEC), stably transfected. The following applies: intact PAEC cells expressing PDGFR, PDGF-BB stimulated; read-out: IC50 (50% inhibition of phosphorylation) PDGFR. The protocol:
as §1
The analysis of PDGF β-receptor phosphorylation was performed as follows. Cell lysates were subjected to immunoprecipitation using the PDGF β-receptor specific antiserum R3 [5]. The precipitates were subjected to polyacrylamide (7.5%) gel electrophoresis in presence of sodium dodecyl sulfate (SDS-PAGE) and were thereafter blotted onto a nitrocellulose membrane (Hybond C-EXTRA, Amersham). Phosphorylated proteins were detected by immunoblotting using the horseradish-peroxidase conjugated phosphotyrosine antibodies PY20 and 4G10 (Upstate Biotechnology), followed by application of secondary horseradish-peroxidase conjugated goat-anti-mouse antibody and chemoluminescence-based detection (ECL, Amersham) and autoradiography.
The data in Table 9 presents the differential potencies of the various compounds with respect to PDGFR and KDR, as was performed on intact PAEC cells expressing these receptors (see experimental methods section above).

Where [2] appears, read: absence of PDGF-BB, read-out: IC50 of basal migratory activity of HCASMC.
Setting [3] is: presence of PDGF-BB, read-out: IC50 of induced migratory activity of HCASMC.
The mark [4] stands for this setting: 0.03 μM tyrphostin, [γ-32P]ATP, densitometry.

T2 sequence (P05622 32-1098): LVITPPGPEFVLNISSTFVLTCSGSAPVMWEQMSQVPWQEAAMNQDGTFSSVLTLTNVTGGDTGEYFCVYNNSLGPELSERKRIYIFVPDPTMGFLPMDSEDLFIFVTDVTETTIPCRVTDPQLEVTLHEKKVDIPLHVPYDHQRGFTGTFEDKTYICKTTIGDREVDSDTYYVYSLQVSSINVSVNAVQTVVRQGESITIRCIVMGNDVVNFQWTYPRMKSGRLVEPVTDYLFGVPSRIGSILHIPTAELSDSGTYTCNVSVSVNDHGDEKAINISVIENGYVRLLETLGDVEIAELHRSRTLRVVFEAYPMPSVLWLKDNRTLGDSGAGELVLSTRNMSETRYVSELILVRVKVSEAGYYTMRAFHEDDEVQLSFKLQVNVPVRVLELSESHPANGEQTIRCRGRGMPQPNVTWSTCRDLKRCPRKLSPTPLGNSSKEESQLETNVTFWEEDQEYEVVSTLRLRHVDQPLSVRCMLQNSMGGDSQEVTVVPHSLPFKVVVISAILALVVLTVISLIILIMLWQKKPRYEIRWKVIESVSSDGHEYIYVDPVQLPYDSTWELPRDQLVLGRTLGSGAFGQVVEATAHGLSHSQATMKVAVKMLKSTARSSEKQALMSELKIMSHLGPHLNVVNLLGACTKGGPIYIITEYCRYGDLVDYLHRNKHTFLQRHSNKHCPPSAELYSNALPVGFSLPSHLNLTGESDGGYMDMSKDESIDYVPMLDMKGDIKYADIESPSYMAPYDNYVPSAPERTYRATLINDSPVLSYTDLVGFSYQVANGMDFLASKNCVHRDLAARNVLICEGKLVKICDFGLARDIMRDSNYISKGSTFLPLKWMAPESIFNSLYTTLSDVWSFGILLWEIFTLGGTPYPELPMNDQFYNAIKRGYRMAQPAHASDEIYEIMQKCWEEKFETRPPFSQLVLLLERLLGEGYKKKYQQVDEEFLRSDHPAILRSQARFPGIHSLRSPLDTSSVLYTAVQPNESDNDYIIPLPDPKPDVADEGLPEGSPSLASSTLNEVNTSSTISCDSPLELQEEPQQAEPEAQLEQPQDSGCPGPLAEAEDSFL
PDGF β-receptor, sequence (P09619 33-1106): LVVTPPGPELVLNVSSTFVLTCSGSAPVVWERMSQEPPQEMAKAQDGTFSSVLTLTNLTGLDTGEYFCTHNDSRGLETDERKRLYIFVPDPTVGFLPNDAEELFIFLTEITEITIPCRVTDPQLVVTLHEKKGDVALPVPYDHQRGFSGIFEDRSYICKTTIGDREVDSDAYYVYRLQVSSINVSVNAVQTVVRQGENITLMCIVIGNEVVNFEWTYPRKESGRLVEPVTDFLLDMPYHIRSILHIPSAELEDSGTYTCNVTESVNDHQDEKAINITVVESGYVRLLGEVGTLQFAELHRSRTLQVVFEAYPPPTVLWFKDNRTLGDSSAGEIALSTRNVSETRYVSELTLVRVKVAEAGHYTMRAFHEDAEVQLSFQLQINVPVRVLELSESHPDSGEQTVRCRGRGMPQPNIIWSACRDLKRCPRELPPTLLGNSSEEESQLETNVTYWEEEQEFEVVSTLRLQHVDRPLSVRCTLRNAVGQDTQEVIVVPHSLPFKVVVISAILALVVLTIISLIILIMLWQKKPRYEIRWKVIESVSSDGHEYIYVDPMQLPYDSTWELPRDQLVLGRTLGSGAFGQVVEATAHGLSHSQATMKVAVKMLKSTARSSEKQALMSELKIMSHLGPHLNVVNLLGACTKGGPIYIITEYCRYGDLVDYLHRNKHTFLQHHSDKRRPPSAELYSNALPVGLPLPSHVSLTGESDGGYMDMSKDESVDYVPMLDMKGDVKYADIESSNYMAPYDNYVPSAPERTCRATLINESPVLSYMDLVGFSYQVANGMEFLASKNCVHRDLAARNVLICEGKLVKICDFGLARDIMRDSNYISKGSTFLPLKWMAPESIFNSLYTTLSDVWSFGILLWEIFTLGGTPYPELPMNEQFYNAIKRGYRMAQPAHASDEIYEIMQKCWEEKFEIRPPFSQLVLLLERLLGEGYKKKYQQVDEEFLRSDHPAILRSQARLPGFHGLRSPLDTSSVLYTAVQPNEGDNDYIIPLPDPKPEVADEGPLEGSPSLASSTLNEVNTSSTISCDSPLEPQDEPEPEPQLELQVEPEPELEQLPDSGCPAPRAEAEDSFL
T1 sequence (P35968 20-1356): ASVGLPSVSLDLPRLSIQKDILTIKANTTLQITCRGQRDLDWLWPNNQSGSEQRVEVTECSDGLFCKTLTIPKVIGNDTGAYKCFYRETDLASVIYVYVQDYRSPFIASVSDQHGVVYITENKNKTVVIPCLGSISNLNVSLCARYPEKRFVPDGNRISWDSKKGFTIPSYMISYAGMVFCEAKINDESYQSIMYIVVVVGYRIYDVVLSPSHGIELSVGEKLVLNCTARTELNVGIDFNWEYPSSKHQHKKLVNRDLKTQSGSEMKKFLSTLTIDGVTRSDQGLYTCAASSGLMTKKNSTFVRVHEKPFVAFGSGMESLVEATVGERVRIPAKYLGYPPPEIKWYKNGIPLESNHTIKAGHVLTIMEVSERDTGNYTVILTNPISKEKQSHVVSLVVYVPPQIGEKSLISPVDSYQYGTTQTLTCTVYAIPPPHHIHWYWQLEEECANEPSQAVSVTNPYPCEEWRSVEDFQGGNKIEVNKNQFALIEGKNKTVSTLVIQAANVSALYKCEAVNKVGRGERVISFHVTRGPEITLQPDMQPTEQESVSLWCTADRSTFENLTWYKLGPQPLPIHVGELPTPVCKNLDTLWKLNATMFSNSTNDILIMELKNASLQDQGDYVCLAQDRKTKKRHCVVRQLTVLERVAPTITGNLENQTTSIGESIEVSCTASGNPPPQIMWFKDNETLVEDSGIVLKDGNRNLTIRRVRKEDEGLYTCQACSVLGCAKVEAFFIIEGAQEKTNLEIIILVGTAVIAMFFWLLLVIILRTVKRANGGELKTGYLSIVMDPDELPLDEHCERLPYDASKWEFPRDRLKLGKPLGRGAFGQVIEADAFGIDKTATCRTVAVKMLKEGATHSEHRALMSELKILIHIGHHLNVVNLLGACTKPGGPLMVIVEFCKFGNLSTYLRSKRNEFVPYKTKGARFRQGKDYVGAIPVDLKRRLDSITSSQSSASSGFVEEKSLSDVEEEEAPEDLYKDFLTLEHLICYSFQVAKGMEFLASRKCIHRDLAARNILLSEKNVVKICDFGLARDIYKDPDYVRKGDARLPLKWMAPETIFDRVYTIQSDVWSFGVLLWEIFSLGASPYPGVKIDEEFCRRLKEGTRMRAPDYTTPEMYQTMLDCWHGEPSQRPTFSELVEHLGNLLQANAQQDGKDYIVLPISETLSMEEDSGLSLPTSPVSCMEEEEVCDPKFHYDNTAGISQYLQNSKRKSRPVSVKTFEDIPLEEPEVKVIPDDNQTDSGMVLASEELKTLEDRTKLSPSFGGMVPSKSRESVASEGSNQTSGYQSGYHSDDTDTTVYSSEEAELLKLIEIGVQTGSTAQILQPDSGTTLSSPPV

Regarding `Cc1nc2cc3nc(-c4ccccc4)cnc3cc2n1C` [AG2033, 1,2-dimethyl-6-phenyl imidazolo[5,4-g]quinoxaline], the IC50 (in general, the concentration at which inhibition is half-maximal) on KDR was greater than 10 µM; in experiment [1] (setting [2]), less than 10 µM; in experiment [1] (setting [3]) it was less than 3 µM; at PDGFβR it was 0.07 µM; on PDGF β-receptor, 0.5 µM. Moreover, the “% of Control (percent autokinase activity)” value on PDGFβR (setting [4]) is 97.9 % of Control; on PDGFβR (0.1 μM tyrphostin) it was 37 % of Control; on PDGFβR (0.3 μM tyrphostin), 17.9 % of Control; at PDGFβR (1 μM tyrphostin), 13.7 % of Control; at PDGFβR (3 μM tyrphostin), 9.8 % of Control.
Consider `Cc1nc2cc3nc(-c4cccs4)cnc3cc2n1C` [AG2043, 1,2-dimethyl-6-(2-thiophene) imidazolo[5,4-g]quinoxaline], for which the IC50 at KDR was 3 µM; in experiment [1] (setting [2]) it was less than 10 µM; in experiment [1] (setting [3]) it was roughly 3 µM; on PDGFβR, 0.09 µM; on PDGF β-receptor, 1 µM. For the same compound, the “% of Control (percent autokinase activity)” value on PDGFβR (setting [4]) is 60.1 % of Control; at PDGFβR (0.1 μM tyrphostin), 41.6 % of Control; on PDGFβR (0.3 μM tyrphostin), 40.4 % of Control; on PDGFβR (1 μM tyrphostin) it was 15.1 % of Control; on PDGFβR (3 μM tyrphostin), 11 % of Control.
